Patent US9708282B1, “Anti-inflammatory and antiepileptic neuroprotective statin compounds” (NEURON BIOPHARMA, S.A., priority 2013, dated 2017)

Tests used:
[1] = molecular target: T1, 3-hydroxy-3-methylglutaryl coenzyme A reductase (HMGCR) (Homo sapiens, UniProt P04035); test: Inhibition of HMGCR enzymatic activity in vitro (NADPH absorbance at 340 nm); type: biochemical; settings: hydroxy acid forms
T1 construct: representing oxidation of NADPH by the catalytic subunit of HMGCR in the presence of the substrate
T1 sequence (P04035 426-888 limits assumed): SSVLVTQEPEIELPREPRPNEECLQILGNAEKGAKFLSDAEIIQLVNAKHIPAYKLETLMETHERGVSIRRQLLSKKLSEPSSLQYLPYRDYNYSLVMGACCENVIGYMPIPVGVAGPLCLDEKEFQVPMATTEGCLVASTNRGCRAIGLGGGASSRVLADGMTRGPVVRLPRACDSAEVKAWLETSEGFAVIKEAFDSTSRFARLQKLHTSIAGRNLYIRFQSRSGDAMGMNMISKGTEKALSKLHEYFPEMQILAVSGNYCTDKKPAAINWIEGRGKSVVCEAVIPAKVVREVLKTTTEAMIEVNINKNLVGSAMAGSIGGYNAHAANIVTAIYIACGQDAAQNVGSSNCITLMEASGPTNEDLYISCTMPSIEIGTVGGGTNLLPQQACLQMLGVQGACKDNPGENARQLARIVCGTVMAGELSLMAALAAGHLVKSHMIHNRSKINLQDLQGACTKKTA
Description: The degree of inhibition of the HMGCR enzyme in vitro by NST0076 and NST0078 in the hydroxy acid form thereof was studied.
During the reaction, HMGCR uses NADPH (Nicotinamide Adenine Dinucleotide Phosphate) as reducing agent and 3-hydroxy-3-methylglutaryl coenzyme A (HMG-CoA) as substrate. Mevalonic acid is obtained as a reaction product, and it serves as substrate for the subsequent reaction to continue with cholesterol synthesis. The enzymatic reaction object of study is schematized as follows: HMG-CoA+2.NADPH+2.H^+→Mevalonic acid+2.NADP^++CoASH
This in vitro assay is based on the spectrophotometric measurement of the decrease in absorbance at 340 nm, representing oxidation of NADPH by the catalytic subunit of HMGCR in the presence of the substrate. […] Briefly, the assay is performed in a 96-well plate with reaction buffer 50 mM KH2PO4, 1 M KCl, 2 mg/ml bovine serum albumin (BSA) and 5 mM DTT, at pH=7.3, and the concentrations of the reagents in the reaction mixture are 0.2 mM HMG-CoA, 3 μU/point HMGCR and 0.2 mM NADPH. The plate is read in a spectrophotometer at 340 nm and 37° C.

transgenic ApoB100 mice = test: Hypocholesterolemic effect in endogenous (familial) hypercholesterolemia model; type: in vivo; settings: 50 mg/kg i.p., 12 h after treatment, male ApoB100 mice
Method: The mice were inoculated i.p. with 50 mg/kg of the compounds. Control mice were inoculated with equivalent volumes of the vehicle. Blood was drawn in fasting conditions before treating the animals and 12 h after treatments. Plasma, which was subsequently frozen, was obtained in both cases. The plasma total, LDL and HDL cholesterol concentration was quantified by enzymatic and spectrophotometric methods. After determining cholesterol levels and cholesterol fraction levels (baseline levels and 12 h after treatments), the change thereof with respect to the baseline level was calculated, and the results were depicted as a percentage with respect to the control group.

reactive astroglia = test: Protection against brain inflammation (astrogliosis, GFAP immunohistochemistry) induced by kainate; type: in vivo, mice; settings: 3.125 mg/kg i.p. 24 h and 0.5 h before kainate 23 mg/kg, then 1 dose/day for three days; surviving animals
Method: Based on the coronal sections of the brain obtained during the experiment described above, astrogliosis was analyzed by means of bright field immunohistochemistry for the glial fibrillary acidic protein (GFAP) in surviving animals.
The degree to which astrogliosis has spread (or score) was determined on a scale of intensity from 0 to 3, where zero indicates the absence of reactive astroglia and three indicates maximum reactive astroglia, for each of the groups.

β-secretase (BACE) [2] = molecular target: T2, β-secretase (BACE) (Mus musculus, UniProt P56818); test: β-secretase (BACE) enzymatic activity in the brain of mice after i.p. administration; type: in vivo; settings: 50 mg/kg i.p., 24 h after administration, FVB mice, brain homogenates
T2 construct: contacting a BACE-specific, fluorogenic substrate with a brain homogenate in which the enzyme is present; from tissue; host or cells: brain (without cerebellum) of FVB mice
T2 sequence (P56818 46-501): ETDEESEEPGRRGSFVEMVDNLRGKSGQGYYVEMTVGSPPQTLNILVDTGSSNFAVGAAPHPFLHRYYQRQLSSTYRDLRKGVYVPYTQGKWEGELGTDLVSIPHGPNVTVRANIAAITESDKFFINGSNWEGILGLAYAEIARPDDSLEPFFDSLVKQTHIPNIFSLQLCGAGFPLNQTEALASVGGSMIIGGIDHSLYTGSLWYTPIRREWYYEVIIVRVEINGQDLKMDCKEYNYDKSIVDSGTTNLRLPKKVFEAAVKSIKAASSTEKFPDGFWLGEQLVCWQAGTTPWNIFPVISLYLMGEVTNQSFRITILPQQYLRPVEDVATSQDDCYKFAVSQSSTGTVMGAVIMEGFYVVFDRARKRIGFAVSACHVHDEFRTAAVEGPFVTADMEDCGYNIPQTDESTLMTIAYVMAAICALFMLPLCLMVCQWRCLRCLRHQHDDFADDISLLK
Method: During the reaction, contacting a BACE-specific, fluorogenic substrate with a brain homogenate in which the enzyme is present allows quantifying the enzyme activity by means of measuring the fluorescence emitted.
Female FVB mice 4 months of age were treated i.p. with 50 mg/kg of the compounds or with equivalent volumes of the vehicle (n=6 mice/group). After 24 h, the animals were sacrificed and the brain was extracted and frozen at −20° C., first disposing of the cerebellum. After freezing the brains for 24 h, they were homogenized by making a 1/100 dilution in 0.1 M sodium acetate at pH 4. The samples were incubated for 10 minutes under cold conditions to favor lysis and to obtain the extract after centrifuging at 10,000 g for 10 minutes. The enzymatic reaction was then carried out. […] 50 μL of a 20 μM fluorogenic BACE substrate (Mca-[…]) were added to the samples and controls, the final concentration in the well being 10 μM and the total reaction volume being 100 μL. […] The results obtained in arbitrary units were normalized by the amount of protein that was determined by the bicinchoninic acid (BCA) method.

[3] = Concentrations in the brain of mice after i.p. administration (UPLC-MS); type: in vivo; settings: male FVB mice, lactone forms; for AUC in the brain: 50 mg/kg i.p., 1, 2, 4 and 6 h; for Brain AUC and Cmax compared with simvastatin: 50 mg/kg i.p.
Method: (§1) Male FVB mice 4 months of age were treated i.p. with 50 mg/kg of the compounds (n=4-8 mice/group/time). The animals were sacrificed 1, 2, 4 and 6 h after treatment by means of injecting Eutanax, the blood and brain being extracted after perfusion with PBS. The plasma obtained from the blood and the entire brain were frozen at −20° C. until analysis. The compounds were extracted from the tissues with ethyl acetate and resuspended in ethanol for subsequent UPLC-MS quantification. Fluvastatin was used as an internal standard.

[4] = Concentrations in plasma of mice after i.p. administration (UPLC-MS); type: in vivo; settings: male FVB mice, lactone forms; for Plasma levels compared with simvastatin: 50 mg/kg i.p.; for AUC: mouse, plasma, ip, 50 mg/kg i.p., 1, 2, 4 and 6 h
Method: as §1

FVB/NRj mice = test: Protection against epilepsy caused by kainate (Racine scale); settings: 3.125 mg/kg i.p. 24 h and 0.5 h before kainate 23 mg/kg
[5] = tested on: neurons of the hippocampus; settings: 3.125 mg/kg i.p. 24 h and 0.5 h before kainate 23 mg/kg, then 1 dose/day for three days
β-secretase (BACE) [6] = test: β-secretase (BACE) enzymatic activity in the brain of zebra fish after i.p. administration; type: in vivo; settings: 100 mg/kg i.p., 24 h after administration, zebra fish 24 months of age
Method: The compounds object of study were prepared at different concentrations according to the weight of the animals in 0.5% methylcellulose in physiological saline, homogeneous suspensions thereof being obtained. Female zebra fish 24 months of age were treated i.p. with 100 mg/kg of the compounds or with equivalent volumes of the vehicle (n=8 fish/group). After 24 h, the animals were sacrificed and the brain was extracted and frozen at −20° C. After freezing the brains for 24 h, they were homogenized in 500 μL of 0.1 M sodium acetate at pH 4. The samples were incubated for 10 minutes under cold conditions to favor lysis and to obtain the extract after centrifuging at 10,000 g for 10 minutes. The enzymatic reaction was then carried out in the same way as in the case mice.

| SMILES | HMGCR inhibition (in words) [1] | HMGCR inhibition, times less than simvastatin [1] | IC50 ([1]; 20 min, 37° C., read-out: IC50 (concentration at which 50% of the HMGCR enzymatic activity is inhibited)) | Hypocholesterolemic effect (change in plasma total, LDL and HDL cholesterol) (transgenic ApoB100 mice) | Degree of astrogliosis induced by kainate (score 0 to 3) (reactive astroglia) | BACE enzymatic activity in the brain of mice (β-secretase (BACE) [2]) | AUC in the brain [3] | Brain AUC and Cmax compared with simvastatin [3] | Plasma levels compared with simvastatin [4] | AUC [4] | Levels of epilepsy (AUC of Racine scale over 120 min, with respect to Vehicle+KA group) (FVB/NRj mice) | Percentage of animals without damage (hippocampus) [5] | BACE enzymatic activity in the brain of zebra fish (β-secretase (BACE) [6]) |
| --- | --- | --- | --- | --- | --- | --- | --- | --- | --- | --- | --- | --- | --- |
| CCC(CC)C(=O)O[C@H]1C[C@@H](C)C=C2C=C[C@H](C)[C@H](CC[C@@H]3C[C@@H](O)C(C)C(=O)O3)[C@H]21 (stereo partly drawn) [NST0076, (1S,3R,7S,8S,8aR)-8-(2-((2R,4R)-4-hydroxy-5-methyl-6-oxo-tetrahydro-2H-pyran-2-yl)ethyl)-3,7-dimethyl-1,2,3,7,8,8a-hexahydro-naphthalen-1-yl 2-ethylbutanoate] | do not significantly inhibit the HMGCR enzyme | about 28 times | 603 ± 177 nM | did not show any hypocholesterolemic effect | protected against astrogliosis induced by kainate in all the studied regions | capable of reducing BACE enzymatic activity in a statistically significant manner | 37 µg·h/g | AUC and Cmax values surprisingly greater than those of simvastatin | plasma levels considerably greater than simvastatin | 12000 ng·h/mL | greater reduction of the levels of epilepsy compared to simvastatin | 50% | – |
| CCC(CC)C(=O)O[C@H]1C[C@@H](C)C=C2C=C[C@H](C)[C@H](CC[C@@H]3C[C@@H](O)C(CC)C(=O)O3)[C@H]21 (stereo partly drawn) [NST0078, (1S,3R,7S,8S,8aR)-8-(2-((2R,4R)-5-ethyl-4-hydroxy-6-oxo-tetrahydro-2H-pyran-2-yl)ethyl)-3,7-dimethyl-1,2,3,7,8,8a-hexahydronaphthalen-1-yl 2-ethylbutanoate] | – | about 1,900 times | – | did not show any hypocholesterolemic effect | protected against astrogliosis induced by kainate in all the studied regions | capable of reducing BACE enzymatic activity in a statistically significant manner | 17 µg·h/g | AUC and Cmax values surprisingly greater than those of simvastatin | plasma levels considerably greater than simvastatin | 17000 ng·h/mL | greater reduction of the levels of epilepsy compared to simvastatin | 60% | capable of reducing BACE enzymatic activity with respect to the control in a statistically significant manner |
| C[C@H]1C=C2C=C[C@H](C)[C@H](CC[C@@H]3C[C@@H](O)CC(=O)O3)[C@H]2[C@@H](O)C1 [monacolin J, reference compound] | HMGCR inhibitory capacity much less than that of simvastatin | – | – | – | – | – | – | – | – | – | – | – | – |
| CCC(C)(C)C(=O)O[C@H]1C[C@@H](C)C=C2C=C[C@H](C)[C@H](CC[C@@H]3C[C@@H](O)CC(=O)O3)[C@H]21 [simvastatin, reference compound] | – | – | – | – | – | – | – | – | – | – | – | 25% | – |
